Where two headings read alike, the source gives them in different places.
How the values were obtained:
[1] = Foaming efficiency of 1% solutions (foam drainage, half-life, coalescence); type: physicochemical; settings: 1% solution, 20 pumps
[2] = tested on: HUVEC (human umbilical vein endothelial cells); assay: Cytotoxicity on HUVEC (CCK8), IC50 of polidocanols with different chain lengths; type: cell-based; settings: in words, values of Table 8 not in this copy
[3] = tested on: marginal ear vein of rabbits; assay: Venous pathological sections 14 days after injection into rabbit marginal ear vein; type: in vivo, New Zealand rabbit; settings: for Pathological score of rabbit ear blood vessels compared with positive low-dose control group: in words
rabbit ear marginal vein = assay: Venous sclerosis after single injection of foam preparation into rabbit marginal ear vein (effective rate, appearance); type: in vivo, New Zealand rabbit; settings: for Effective rate of venous sclerosis compared with positive control low-dose group: in words
[4] = 14 days after intravenous injection into rabbit ear margin

| SMILES | IC50 value compared with polidocanol group [2] | Pathological changes in blood vessels, high magnification [3] | Pathological changes in blood vessels, low magnification [3] | Pathological score of rabbit ear blood vessels compared with positive low-dose control group [3] | Effective rate of venous sclerosis (rabbit ear marginal vein; [4]) | Effective rate of venous sclerosis compared with positive control low-dose group (rabbit ear marginal vein; 14 days) | Effective rate of venous sclerosis compared with positive control low-dose group (rabbit ear marginal vein; 21 days) | also measured |
| --- | --- | --- | --- | --- | --- | --- | --- | --- |
| CCCCCCCCCCCCOCCOCCOCCOCCOCCOCCOCCOCCOCCOCCOCCOCCOCCOCCOCCOCCOCCOCCOCCOCCOCCOCCOCCOCCO [DD-PEG24-OH] | greater than that of the polidocanol group |  |  |  |  |  |  | Foam coalescence time (FCT), time for foam to completely disappear [1]: about 4.25 min |
| CCCCCCCCCCCCOCCOCCOCCOCCOCCOCCOCCOCCOCCOCCO [DD-PEG10-OH] | smaller than those of the polidocanol group | a large number of fibroblast proliferations can be seen in the lumen, and red blood cells are scattered among local fibroblasts; new capillaries and macrophages that phagocytose hemosiderin can be seen locally | The tissue structure of each layer of the wall is unclear and the blood vessel lumen is occluded | higher than those of the positive low-dose control group | above 83.33% | not lower than the positive control low-dose group | higher than the positive control low-dose group | Foam drainage time (FDT), precipitation time of liquid, in words ([1]; relative to other samples): relatively slow |
| CCCCCCCCCCCCOCCOCCOCCOCCOCCOCCOCCOCCOCCOCCOCCO [DD-PEG11-OH] | smaller than those of the polidocanol group | a large number of fibroblast proliferations can be seen in the lumen, and red blood cells are scattered among local fibroblasts; new capillaries and macrophages that phagocytose hemosiderin can be seen locally | The tissue structure of each layer of the wall is unclear and the blood vessel lumen is occluded | higher than those of the positive low-dose control group | above 83.33% | not lower than the positive control low-dose group | higher than the positive control low-dose group |  |
| CCCCCCCCCCCCOCCOCCOCCOCCOCCOCCOCCOCCO [DD-PEG8-OH] | smaller than those of the polidocanol group | a large number of fibroblast proliferations can be seen in the lumen, and red blood cells are scattered among local fibroblasts; new capillaries and macrophages that phagocytose hemosiderin can be seen locally | The tissue structure of each layer of the wall is unclear and the blood vessel lumen is occluded | higher than those of the positive low-dose control group | above 83.33% | not lower than the positive control low-dose group | higher than the positive control low-dose group | Appearance of veins (rabbit ear marginal vein; 14 days after administration): some Blood vessels are blocked; Appearance of veins (rabbit ear marginal vein; 21 days after administration): some blood vessels in the rabbit ear Completely blocked |
| CCCCCCCCCCCCOCCOCCOCCOCCOCCOCCOCCOCCOCCOCCOCCOCCO [DD-PEG12-OH] | smaller than those of the polidocanol group |  |  |  |  |  |  |  |
| CCCCCCCCCCCCOCCOCCOCCOCCOCCOCCOCCOCCOCCO [DD-PEG9-OH] | smaller than those of the polidocanol group |  |  |  |  |  |  | Pathological score of rabbit ear blood vessels compared with positive low-dose control group ([3]; P9 high-dose group): higher than those of the positive low-dose control group; Pathological score of rabbit ear blood vessels compared with positive low-dose control group ([3]; P9 low-dose group): higher than those of the positive low-dose control group; Pathological changes in blood vessels, high magnification ([3]; high-dose group): a large number of fibroblast proliferations can be seen in the lumen, and red blood cells are scattered among local fibroblasts; new capillaries and macrophages that phagocytose hemosiderin can be seen locally; Pathological changes in blood vessels, low magnification ([3]; high-dose group): The tissue structure of each layer of the wall is unclear and the blood vessel lumen is occluded; Pathological changes in blood vessels, high magnification ([3]; low-dose group): a large number of fibroblast proliferations can be seen in the lumen, and red blood cells are scattered among local fibroblasts; new capillaries and macrophages that phagocytose hemosiderin can be seen locally; Pathological changes in blood vessels, low magnification ([3]; low-dose group): The tissue structure of each layer of the wall is unclear and the blood vessel lumen is occluded; Appearance of veins (rabbit ear marginal vein; 14 days after administration, low-dose group): some Blood vessels are blocked; Effective rate of venous sclerosis (rabbit ear marginal vein; 14 days, P9 high-dose group): above 83.33%; Effective rate of venous sclerosis compared with positive control low-dose group (rabbit ear marginal vein; 14 days, P9 high-dose group): not lower than the positive control low-dose group; Effective rate of venous sclerosis (rabbit ear marginal vein; 14 days, P9 low-dose group): above 83.33%; Effective rate of venous sclerosis compared with positive control low-dose group (rabbit ear marginal vein; 14 days, P9 low-dose group): not lower than the positive control low-dose group; Appearance of veins (rabbit ear marginal vein; 21 days after administration, low-dose group): some blood vessels in the rabbit ear Completely blocked; Effective rate of venous sclerosis compared with positive control low-dose group (rabbit ear marginal vein; 21 days, P9 high-dose group): higher than the positive control low-dose group; Effective rate of venous sclerosis compared with positive control low-dose group (rabbit ear marginal vein; 21 days, P9 low-dose group): higher than the positive control low-dose group |
| CCCCCCCCCCCCOCCOCCOCCOCCO [DD-PEG4-OH] | greater than that of the polidocanol group |  |  |  |  |  |  | Foam half-life time (FHT), in words ([1]; even if a small amount of foam is formed): disappear in a very short time; Foam formation ([1]; in words, listed as P4): it is difficult for the P4 sample to form foam |

Source: patent WO2023227069A1, “Polidocanol with single molecular weight, and use thereof” (Jenkem Technology Co Ltd, priority 2022, dated 2023)
